# Data reported in US8207402B2, “Nucleotide sequences encoding enzymes in biosynthesis of dihydroartemisinic acid” (National Research Council of Canada, priority 2006, dated 2012).
# Columns and labels:
# recombinant AaALDH1 = target: T1, recombinant AaALDH1 (Artemisia annua, UniProt C5I9X1); assay: Characterization of purified recombinant AaALDH1 (kinetic parameters, substrate specificity); assay type: biochemical; conditions: for Km / Vmax: purified recombinant AaALDH1, 50 mM Tris-HCl buffer, pH 8.5, means of three independent experiments; for substrate for the recombinant AaALDH1: optimum assay conditions, substrate concentration at 10 times the estimated Km
# T1 construct: made in house; host or cells: E. coli BL21(DE3)
# T1 sequence (C5I9X1 with tags, fused parts or gaps): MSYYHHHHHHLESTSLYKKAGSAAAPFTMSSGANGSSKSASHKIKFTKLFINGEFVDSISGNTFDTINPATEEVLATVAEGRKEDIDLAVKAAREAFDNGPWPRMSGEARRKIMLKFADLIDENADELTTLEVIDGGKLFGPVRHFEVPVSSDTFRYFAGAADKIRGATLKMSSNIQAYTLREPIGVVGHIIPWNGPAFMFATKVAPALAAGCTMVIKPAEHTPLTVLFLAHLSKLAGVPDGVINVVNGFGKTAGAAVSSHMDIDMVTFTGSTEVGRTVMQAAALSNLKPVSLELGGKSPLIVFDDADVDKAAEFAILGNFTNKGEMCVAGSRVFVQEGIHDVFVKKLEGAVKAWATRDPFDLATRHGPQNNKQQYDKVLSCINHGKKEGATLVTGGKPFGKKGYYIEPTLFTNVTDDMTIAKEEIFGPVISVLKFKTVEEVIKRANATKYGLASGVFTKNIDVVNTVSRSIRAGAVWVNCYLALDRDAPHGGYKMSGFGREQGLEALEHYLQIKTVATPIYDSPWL
# Protocol: Purification of Recombinant AaALDH1
# Cell-free extract of recombinant AaALDH1 was prepared as described above. The cell-free extract was centrifuged at 20,000 g at 4° C. for 15 minutes to remove any remaining insoluble materials before loading onto a His-Trap FF column (Amersham Bioscience, N.J.) equilibrated with binding buffer (20 mM sodium phosphate buffer containing 500 mM NaCl and 20 mM imidazole at pH 7.5). The column was washed with 5 column volume of binding buffer and the recombinant AaALDH1 eluted with elution buffer (20 mM sodium phosphate, 500 mM NaCl, pH 7.5) containing increasing concentration of imidazole in a step-wise fashion. The eluted fractions were concentrated and desalted in centrifugal filter devices (Amicon Ultra—15) (Millipore, Mass.) following manufacturer's protocol. The purity of the recombinant AaALDH1 was checked with SDS gel stained with Rapid Stain (Biosciences, St. Louis, Mo.).
# Characterization of Purified Recombinant AaALDH1
# The linearity of the assay with respect to time and protein concentration was first established and the operational saturation of substrate and cofactor determined. The pH optimum was determined by the standard assay in 50 mM buffer (sodium phosphate, Tris-HCl and CHES) from pH 6.0 to 10.0 at 0.5 unit interval containing 1 mM NADP and 1.5 micrograms of the purified recombinant AaALDH1. Kinetic parameters were determined in 50 mM Tris-HCl buffer, pH 8.5 by varying the concentration of the substrates. Kinetic constants were determined by non-linear regression analysis using GraphPad software (GraphPad Software Inc. San Diego, Calif.) and the results presented are the means of three independent experiments. Substrates specificity was determined at optimum reaction conditions with substrates concentration at 10 times the estimated Km value. Substrates tested include artemisinic aldehyde, (11R)-dihydroartemisinic aldehyde, artemisinic alcohol, dihydroartemisinic alcohol, octanal, nonanal, 2-phenyl propionaldehyde, 3-cyclohexyl propionaldehyde, 2-hexen-1-al, syringaldehyde.
# [1] = tested on: recombinant His-tagged AaDBR1; assay: In vitro cell-free assay of recombinant His-tagged AaDBR1, GC/MS; assay type: biochemical, Artemisia annua; conditions: E. coli cell-free extract, 1 mM NADPH, pH 7.5, 30 minutes at 30° C.
# Protocol: (§1) The plasmid pKT032 or pKT041 was introduced into E. coli strain BL21(DE3) (Novagen) using heat shock at 42° C. The GUS gene (Invitrogen) was cloned into pDEST17 to replace the ccdB gene and the construct pDEST-GUS introduced into the E. coli strain BL21(DE3) was used as a control. Transformants were grown on Luria Broth (LB) and selected on ampicillin (100 μg/mL) at 37° C. for 24 hours. A single colony containing pKT032 or pKT041 was used to inoculate 5 mL of LB liquid medium with ampicillin (LBA) and grown at 37° C. overnight with shaking. The overnight culture was used to inoculate 250 mL of LBA liquid medium and grown at 37° C. with shaking to an OD600 of 0.6 per mL followed by induction with 1 mM IPTG and grown at 30° C. overnight with shaking. Cells were pelleted at 2,000 g at 4° C. for 10 minutes. The pelleted cells were resuspended in 6 mL of lysis buffer consisting of 50 mM sodium phosphate, pH 8.0, 0.1 M NaCl, 20 mM imidazole and 1 mM phenylmethylsufonyl fluoride (PMSF). Cells were lysed with lysozyme (0.2 mg/mL of cells) on ice for 30 minutes followed by sonication on ice with 30s pulse (5×). Protein concentration was determined by Bradford assay (Bio-Rad). The AaDBR1 protein was detected by silver stain on SDS gel and confirmed by Western Blot using Anti-His antibody (Invitrogen). The AaALDH1 protein was detected by Rapid Stain (Bioscience, St. Louis, Mo.) on SDS gel. […]
# [2] = target: T2, recombinant His-tagged AaALDH1 (Artemisia annua, UniProt C5I9X1); assay: In vitro cell-free assay of recombinant His-tagged AaALDH1, GC/MS; assay type: biochemical; conditions: E. coli cell-free extract, 1 mM NADP, pH 8.5, 30 minutes at 30° C.
# T2 construct: made in house; host or cells: E. coli BL21(DE3)
# T2 sequence (C5I9X1 with tags, fused parts or gaps): as above
# Protocol: as §1
# Plasmodium falciparum = conditions: more active than artesunate; cited from earlier work
Compound,Km (recombinant AaALDH1) [µM],Vmax (recombinant AaALDH1) [pkat/μg protein],"product formation by AaDBR1 cell-free extract (GC/MS, FIG. 10) [1]",substrate for the recombinant AaALDH1 (recombinant AaALDH1),"product formation by AaALDH1 cell-free extract (GC/MS, FIG. 11) [2]",activity relative to artesunate (Plasmodium falciparum)
CC1=C[C@H]2[C@@H](CC1)[C@H](C)CC[C@H]2[C@@H](C)C(=O)O [dihydroartemisinic acid],8.79,143.8,–,–,–,–
C=C(C=O)[C@@H]1CC[C@@H](C)[C@@H]2CCC(C)=C[C@@H]21 [artemisinic aldehyde],2.62,28.6,NADPH-dependent formation of (11S)-dihydroartemisinic aldehyde as the major product,found to be a substrate,–,–
CC1=C[C@H]2[C@@H](CC1)[C@H](C)CC[C@H]2[C@@H](C)C=O [(11R)-dihydroartemisinic aldehyde],–,–,–,found to be a substrate,NADP-dependent formation of dihydroartemisinic acid,–
C[C@H]1[C@H](N2CCS(=O)(=O)CC2)O[C@@H]2O[C@@]3(C)CC[C@H]4[C@H](C)CC[C@@H]1[C@@]24OO3 [Artemisone],–,–,–,–,–,10-30 fold
